From patent US20070167377A1, “Inhibitors of glycinamide ribonucleotide transformylase” (priority 2002, published 2007)
“Also recorded” adds a separate entry of the source. Like-named read-outs stand apart in the source and are kept apart here. One block for each compound: values may come before it.

How the values were obtained:
[1] = target: T1, recombinant human GAR Tfase (rhGAR Tfase) (Homo sapiens, UniProt P22102); experiment: Recombinant human GAR Tfase inhibition; assay type: biochemical; details: for potency increase of γ-pentaglutamate over monoglutamate: 21 vs 3, 22 vs 15
T1 construct: includes residues 808-1010 from the human trifunctional enzyme (purD-purM-purN); hexa-histidine (C); made in house; host or cells: E. coli BL21 (DE3) Gold, pet22b vector
T1 sequence (P22102 808-1010): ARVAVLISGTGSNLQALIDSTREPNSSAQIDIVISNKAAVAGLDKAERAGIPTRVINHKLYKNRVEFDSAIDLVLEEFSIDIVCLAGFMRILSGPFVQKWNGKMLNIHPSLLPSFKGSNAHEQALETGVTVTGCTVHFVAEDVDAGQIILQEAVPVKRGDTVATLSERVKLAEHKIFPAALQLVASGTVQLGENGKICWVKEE
Description: The gene was subcloned into the pet22b vector using the Ndel/Xhol cloning site with ahexa-histidine tag at the C-terminus. The plasmid was transformed into the E. coli expression strain BL21 (DE3) Gold. […] The purified protein was used in the inhibition assays, cytotoxic assays and crystallization experiments.
Briefly, each compound was dissolved in dimethyl sulfoxide (DMSO) and then diluted in assay buffer.

[2] = target: human AICAR Tfase (Homo sapiens, UniProt P31939); experiment: AICAR Tfase inhibition; assay type: biochemical; details: for fold enhanced binding affinity / more potent than the corresponding monoglutamate: 21 vs 3, 22 vs 15, 26 vs 15
Description: (§1) GAR and AICAR Tfase inhibition studies were conducted as previously detailed^28 with the exception that the AICAR Tfase inhibition was conducted in the absence of 5 mM β-mercaptoethanol and screened with 10 nM enzyme, […] inhibitor and […] of cofactor. The DHFR inhibition study was conducted as previously detailed with 10 nM enzyme, […] H2F, […] NADPH and […] inhibitor.

[3] = target: T2, E. coli GAR Tfase (Escherichia coli, UniProt P08179); experiment: E. coli GAR Tfase inhibition; assay type: biochemical; details: for fold less potent than the corresponding monoglutamate: α-pentaglutamate vs monoglutamate (25 vs 3, 26 vs 15)
Description: as §1
The Ki values for the folate analogues were measured as previously described (Boger, D. L., et al., Bioorg. Med. Chem. 1997, 5, 1817-1830). Briefly, each compound was dissolved in dimethyl sulfoxide (DMSO) and then diluted in assay buffer. […] Thus, all assays were conducted by mixing 10 μM 10-formyl-5,8-dideazafolate (fDDF), 20 μM inhibitor in total volume of 1 mL buffer (0.1 M HEPES, pH 7.5) at 26° C., and the reaction initiated by the addition of 76 nM E. coli or human GAR Tfase. The assay monitors the deformylation of fDDF (Δε=18.9 mM^−1 cm^−1 at 295 nm) resulting from the transfer of the formyl group to β-GAR.

[4] = system: CCRF-CEM cell line; experiment: CCRF-CEM cytotoxic assay; assay type: cell-based, human; details: for IC50: Homo sapiens
Description: (§2) The cytotoxic activity of the compounds was measured using CCRF-CEM human leukemia cells, as described previously (Boger, D. L., et al., Bioorg. Med. Chem. 1997, 5, 1847-1852). Two mutant cell lines, CCRF-CEM/MTX and CCRF-CEM/FPGS^− were used to determine the dependence on the reduced folate active transport system and folylpolyglutamate synthetase (FPGS), respectively (Jansen, G., et al., Cancer Res. 1989, 49, 2455-2459).

[5] = system: CCRF-CEM/FPGS^− cell line; experiment: Cytotoxic assay, FPGS deficient mutant; assay type: cell-based, human; details: lacks folylpolyglutamate synthase
Description: as §2

[6] = system: CCRF-CEM/MTX cell line; experiment: Cytotoxic assay, reduced folate carrier deficient mutant; assay type: cell-based, human; details: impaired reduced folate carrier; for IC50: Homo sapiens
Description: as §2

[7] = target: DHFR (Escherichia coli, UniProt P0ABQ4); experiment: DHFR inhibition (101, 102); assay type: biochemical; details: DHFR
[8] = target: thymidylate synthetase (TS) (Homo sapiens, UniProt P04818); experiment: Thymidylate synthetase inhibition; assay type: biochemical; details: TS
[9] = earlier studies; cited from earlier work
[10] = target: T2, E. coli GAR Tfase; details: 10-formyl-TDAF, earlier studies; cited from earlier work
[11] = system: CCRF-CEM cell line; details: earlier studies; cited from earlier work
[12] = Chemical stability; assay type: physicochemical
[13] = purines (hypoxanthine) absent in the media
[14] = media supplemented with a purine

- inhibition of GAR Tfase (in words) [1]: lack of inhibition
Structure (SMILES): Nc1nc(N)c(CCCC(C(=O)C(F)(F)F)c2ccc(C(=O)O)cc2)c(=O)[nH]1 (centres unmarked) [Compound 111, 4-[4-(2,4-diamino-6-oxo-1,6-dihydropyrimidin-5-yl)-1-(2,2,2-trifluoro-acetyl)butyl]benzoic acid]

Structure (SMILES): CN(C)N=CC(CCCc1c(N)nc(N)[nH]c1=O)c1ccc(C(=O)N[C@@H](CCC(=O)N[C@@H](CCC(=O)N[C@@H](CCC(=O)N[C@@H](CCC(=O)N[C@@H](CCC(=O)O)C(=O)O)C(=O)O)C(=O)O)C(=O)O)C(=O)O)cc1 (stereo partly drawn) [Compound 22, N{4-[5-(2,4-Diamino-6(1H)-pyrimidinon-5-yl)-1-(dimethylhydrazono)pent-2-yl]benzoyl}-L-γ-glutamyl-L-γ-glutamyl-L-γ-glutamyl-L-γ-glutamyl-L-γ-glutamic Acid]
- fold enhanced binding affinity / more potent than the corresponding monoglutamate [2]: 140 fold
- potency increase of γ-pentaglutamate over monoglutamate [1]: 5 fold
- inhibition of / binding affinity for E. coli GAR Tfase (in words) [3]: only marginal enhanced binding affinity
- cytotoxic activity (in words) [4]: little or no cytotoxic activity

Structure (SMILES): Nc1nc(N)c(CCCC(c2ccc(C(=O)N[C@@H](CCC(=O)O)C(=O)O)cc2)C(O)C(F)(F)F)c(=O)[nH]1 (stereo partly drawn) [Compound 102, N-{4-[4-(2,4-Diamino-6-oxo-1,6-dihydropyrimidin-5-yl)-1-(2,2,2-trifluoro-1-hydroxy-ethyl)butyl]benzoyl}-L-glutamic acid]
- inhibition of AICAR Tfase (in words) [2]: inactivity
- Ki ([2]; AICAR Tfase): > 100000 nM
- cytotoxic activity (in words) [5]: lacked or lost activity
- times less potent than 10-CF3CO-DDACTHF ([1]; comparator 101): ca. 50 times
- Ki ([1]; rhGAR Tfase, read-out: Ki): 900 nM
- cytotoxic activity (in words) [6]: lost activity
- IC50 ([4]; purines absent in the media): 1100 nM
- Ki [7]: > 100000 nM
- Ki [8]: > 100000 nM

Structure (SMILES): Nc1nc2c(c(=O)[nH]1)C[C@@H](CCc1ccc(C(=O)N[C@@H](CCC(=O)O)C(=O)O)cc1)CN2 [Lometrexol, (6R)-5,10-dideazatetrahydrofolate, reference compound]
- cytotoxic activity (in words) [5]: lacked or lost activity
- cytotoxic activity (in words) [6]: lost activity
- IC50 [4, 13]: 230 nM
- IC50 ([4]; purines absent in the media): 150 nM
- cytotoxic activity (in words) [4, 14]: no activity

Structure (SMILES): Nc1nc2ccc(CC(C=O)c3ccc(C(=O)N[C@@H](CCC(=O)O)C(=O)O)cc3)cc2c(=O)[nH]1 (some centres unmarked) [Compound 103, 10-formyl-5,8,10-trideazafolic acid]
- chemical stability (in words) [9]: poor stability; also recorded: facile oxidative decarbonylation
- Ki [10]: 260 nM
- cytotoxic activity (in words) [11]: failed to exhibit effective cytotoxic activity

Structure (SMILES): Nc1nc(N)c(CCCC(=O)c2ccc(C(=O)N[C@@H](CCC(=O)O)C(=O)O)cc2)c(=O)[nH]1 [Compound 14, N-{4-[4-(2,4-Diamino-6(1H)-pyrimidinon-5-yl)-1-oxo-but-1-yl]benzoyl}-L-glutamic Acid]
- inhibition of AICAR Tfase (in words) [2]: inactive
- cytotoxic activity (in words) [5]: inactivity
- IC50 [6]: > 100000 nM
- cytotoxic activity (in words) [6]: lack of cytotoxic activity
- inhibition of / binding affinity for E. coli GAR Tfase (in words) [3]: significantly less active
- IC50 ([4]; purines absent in the media): < 200 nM

Structure (SMILES): Nc1nc(N)c(CCCC(C=O)c2ccc(C(=O)N[C@@H](CCC(=O)O)C(=O)N[C@@H](CCC(=O)O)C(=O)N[C@@H](CCC(=O)O)C(=O)N[C@@H](CCC(=O)O)C(=O)N[C@@H](CCC(=O)O)C(=O)O)cc2)c(=O)[nH]1 (stereo partly drawn) [Compound 25, N{4-[5-(2,4-Diamino-6(1H)-pyrimidinon-5-yl)-1-formyl-but-2-yl]benzoyl}-L-α-glutamyl-L-α-glutamyl-L-α-glutamyl-L-α-glutamyl-L-α-glutamic Acid]
- fold less potent than the aldehyde monoglutamate 3 ([2]; 25 vs 3): 16 fold
- fold less potent than the corresponding monoglutamate [3]: 3 fold
- cytotoxic activity (in words) [4]: little or no cytotoxic activity

Structure (SMILES): CN(C)N=CC(CCCc1c(N)nc(N)[nH]c1=O)c1ccc(C(=O)N[C@@H](CCC(=O)O)C(=O)O)cc1 (stereo partly drawn) [Compound 15, N{4-[5-(2,4-Diamino-6(1H)-pyrimidinon-5-yl)-1-(dimethylhydrazono)pent-2-yl]benzoyl}-L-glutamic Acid]
- fold less effective than 3 ([2]; 15 vs 3): 30 fold
- cytotoxic activity (in words) [5]: inactivity; also recorded: lost cytotoxic activity
- Ki ([1]; rhGAR Tfase, read-out: Ki): 170 nM
- IC50 [6]: > 100000 nM
- cytotoxic activity (in words) [6]: lack of cytotoxic activity

Structure (SMILES): Nc1nc(N)c(CCCC(C=O)c2ccc(C(=O)N[C@@H](CCC(=O)O)C(=O)O)cc2)c(=O)[nH]1 (some centres unmarked) [Compound 3]
- cytotoxic activity (in words) [5]: inactivity; also recorded: lost cytotoxic activity
- Ki [1]: 14 nM
- chemical stability (in words) [12]: chemical instability; also recorded: facile oxidative decarbonylation
- IC50 [6]: > 100000 nM
- cytotoxic activity (in words) [6]: lack of cytotoxic activity; also recorded: lost activity
- Ki ([3]; E. coli GAR Tfase): 6000 nM
- IC50 [4, 13]: 60 nM
- cytotoxic activity (in words) [4, 14]: no activity

Structure (SMILES): Nc1nc(N)c(CCCC(C=O)c2ccc(C(=O)N[C@@H](CCC(=O)N[C@@H](CCC(=O)N[C@@H](CCC(=O)N[C@@H](CCC(=O)N[C@@H](CCC(=O)O)C(=O)O)C(=O)O)C(=O)O)C(=O)O)C(=O)O)cc2)c(=O)[nH]1 (stereo partly drawn) [Compound 21, N-{4-[5-(2,4-Diamino-6(1H)-pyrimidinon-5-yl)-1-formyl-but-2-yl]benzoyl}-L-γ-glutamyl-L-γ-glutamyl-L-γ-glutamyl-L-γ-glutamyl-L-γ-glutamic Acid]
- fold enhanced binding affinity / more potent than the corresponding monoglutamate [2]: 4 fold
- potency increase of γ-pentaglutamate over monoglutamate [1]: did not enhance
- inhibition of / binding affinity for E. coli GAR Tfase (in words) [3]: only marginal enhanced binding affinity
- cytotoxic activity (in words) [4]: little or no cytotoxic activity

Structure (SMILES): Nc1nc(N)c(CCCCc2ccc(C(=O)N[C@@H](CCC(=O)O)C(=O)O)cc2)c(=O)[nH]1 [DDACTHF, reference compound]
- IC50 ([4]; purines absent in the media): 2700 nM

Structure (SMILES): CN(C)N=CC(CCCc1c(N)nc(N)[nH]c1=O)c1ccc(C(=O)N[C@@H](CCC(=O)O)C(=O)N[C@@H](CCC(=O)O)C(=O)N[C@@H](CCC(=O)O)C(=O)N[C@@H](CCC(=O)O)C(=O)N[C@@H](CCC(=O)O)C(=O)O)cc1 (stereo partly drawn) [Compound 26, N{4-[5-(2,4-Diamino-6(1H)-pyrimidinon-5-yl)-1-(dimethylhydrazono)pent-2-yl]benzoyl}-L-α-glutamyl-L-α-glutamyl-L-α-glutamyl-L-α-glutamyl-L-α-glutamic Acid]
- fold enhanced binding affinity / more potent than the corresponding monoglutamate [2]: 4 fold
- orders of magnitude less potent than the corresponding γ-pentaglutamate 22 ([2]; 26 vs 22): 1-2 orders of magnitude
- orders of magnitude less potent than the corresponding γ-pentaglutamate 22 ([3]; 26 vs 22): 1-2 orders of magnitude
- fold less potent than the corresponding monoglutamate [3]: 4 fold
- cytotoxic activity (in words) [4]: little or no cytotoxic activity

Structure (SMILES): Nc1nc(N)c(CCCC(CO)c2ccc(C(=O)N[C@@H](CCC(=O)O)C(=O)O)cc2)c(=O)[nH]1 (stereo partly drawn) [Compound 17, N-{4-[5-(2,4-Diamino-6(1H)-pyrimidinon-5-yl)-1-hydroxypent-2-yl]benzoyl}-L-glutamic Acid]
- inhibition of AICAR Tfase (in words) [2]: inactive
- cytotoxic activity (in words) [5]: inactivity
- IC50 [6]: > 100000 nM
- cytotoxic activity (in words) [6]: lack of cytotoxic activity
- inhibition of / binding affinity for E. coli GAR Tfase (in words) [3]: significantly less active
